One assay addresses Cdk1/cycB (UniProt P06493). In words: Cdk1/cycB kinase assay, histone H1 substrate. In kind it is biochemical, starfish. How it is done: The inhibition of Cdk1 can be determined as follows: Cdk1/cycB: Cdk1/cycB are obtained from ProQinase, Freiburg, Germany. Starfish oocytes are induced to enter M phase of the cell cycle with 10 μM 1-methyladenine and frozen in liquid nitrogen and stored at −80° C. […] Briefly, the supernatant from oocytes is equilibrated for 30 min at 4° C. under constant rotation with the p9^CKShs-sepharose beads. The beads are extensively washed and active cdk1/cycB kinase is eluted with purified p9^CKShs (3 mg/ml). […] The assay is carried with slight modifications in 96-well plates at ambient temperature for 20 min. […] The reaction is terminated by addition of 25 μl 0.05 M EDTA pH 7.0. An aliquot of 40 μl is spotted with a multichannel dispenser on Immobilon P membranes mounted in a Millipore Microtiter filter manifold connected to a low vacuum source. After elimination of liquid, the membrane is transferred to a sequence of 4 washing baths containing 0.5% H3PO4 and one with EtOH (shaking incubation for 10 min each), dried, mounted onto a Hewlett Packard TopCount manifold added 10 μl Microscint® and counted. […] Cells were seeded at 2.5×10^7 cells per 150 mm dish and allowed to attach to a 150 mm dish for 1 hr at RT. Media (SF900II containing 10% FBS) is aspirated and recombinant baculovirus; GST-C-Raf-1, v-Ras and v-Src are added at MOI of 3.0, 2.5 and 2.5 receptively in a total volume of 4-5 mL. Cells are incubated for 1 hr at RT and then 15 mL of medium is added. Infected cells are incubated for 48-72 hr at 27° C. Infected Sf21 cells are scraped and collected into a 50 mL tube and centrifuged for 10 min at 4° C. at 1100 g in a Sorvall centrifuge. The cell pellet is washed once with ice cold PBS and lysed with 0.6 mL lysis buffer per 2.5×10^7 cells. Complete lysis of cells is achieved after 10 min on ice with occasional pipetting. […] GST-c-Raf-1 was allowed to bind to the beads at 4° C. for 1 hr with rocking. Bound GST-c-Raf-1 with beads was transferred to a column. The column is washed once with lysis buffer and twice with ice cold Tris buffered saline. Ice cold elution buffer is added and column flow is stopped to allow the free glutathione to disrupt the interaction of GST-c-Raf-1 with glutathione sepharose beads. Fractions (1 mL) are collected into pre-chilled tubes. Each tube contains 10% glycerol (final concentration) to maintain kinase activity during freeze thaw cycles. Purified fractions of GST-c-Raf-1 kinase protein are stored at −80° C.

In the next assay the target is HER-1 (Homo sapiens, UniProt P00533). The experiment in a line: HER-1 kinase inhibition. The assay is classed as biochemical. As to conditions: Table 5; read-out: HER-1, IC50 class.
HER-1, sequence (P00533 25-1210, species assumed): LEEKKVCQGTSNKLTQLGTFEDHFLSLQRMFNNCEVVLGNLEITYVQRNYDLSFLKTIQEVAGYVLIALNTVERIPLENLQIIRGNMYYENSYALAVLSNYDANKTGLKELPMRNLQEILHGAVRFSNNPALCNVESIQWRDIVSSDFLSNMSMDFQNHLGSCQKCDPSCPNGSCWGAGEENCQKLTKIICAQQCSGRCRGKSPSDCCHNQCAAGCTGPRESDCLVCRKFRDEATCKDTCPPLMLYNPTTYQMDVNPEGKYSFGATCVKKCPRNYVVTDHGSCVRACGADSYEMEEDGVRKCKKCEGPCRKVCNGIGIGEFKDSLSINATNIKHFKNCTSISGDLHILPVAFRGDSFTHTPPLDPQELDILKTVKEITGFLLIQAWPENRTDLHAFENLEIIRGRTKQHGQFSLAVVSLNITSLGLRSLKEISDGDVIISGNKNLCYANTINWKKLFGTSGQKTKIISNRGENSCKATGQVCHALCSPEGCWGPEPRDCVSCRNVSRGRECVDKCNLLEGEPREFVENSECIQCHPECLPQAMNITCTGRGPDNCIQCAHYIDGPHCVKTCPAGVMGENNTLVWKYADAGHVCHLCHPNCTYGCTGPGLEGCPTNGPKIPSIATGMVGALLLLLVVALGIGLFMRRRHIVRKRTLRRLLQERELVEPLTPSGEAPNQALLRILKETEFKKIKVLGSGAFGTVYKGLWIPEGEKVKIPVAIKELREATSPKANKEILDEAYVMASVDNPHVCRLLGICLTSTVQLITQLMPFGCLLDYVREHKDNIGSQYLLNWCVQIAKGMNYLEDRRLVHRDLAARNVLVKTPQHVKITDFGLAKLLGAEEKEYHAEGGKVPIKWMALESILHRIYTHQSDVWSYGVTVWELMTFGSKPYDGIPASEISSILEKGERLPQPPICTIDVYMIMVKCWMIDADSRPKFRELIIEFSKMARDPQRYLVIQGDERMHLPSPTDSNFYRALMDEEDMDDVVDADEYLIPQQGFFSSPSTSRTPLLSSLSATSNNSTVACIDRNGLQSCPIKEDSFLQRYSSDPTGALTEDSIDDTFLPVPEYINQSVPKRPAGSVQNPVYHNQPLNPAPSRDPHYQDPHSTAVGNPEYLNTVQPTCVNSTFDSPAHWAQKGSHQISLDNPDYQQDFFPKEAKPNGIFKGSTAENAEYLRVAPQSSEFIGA
For the next assay, the target named is T1, Tek (Homo sapiens, UniProt Q02763).
T1 construct: N-terminally GST-fused (pAcG1, Pharmingen) KDR, Flt-1, Flk-1, Tek and PDGFR-β kinase domains are obtained from ProQinase, Freiburg, Germany; host or cells: Sf9 or High Five (baculovirus)
T1 sequence (Q02763 824-1096 limits assumed, species assumed): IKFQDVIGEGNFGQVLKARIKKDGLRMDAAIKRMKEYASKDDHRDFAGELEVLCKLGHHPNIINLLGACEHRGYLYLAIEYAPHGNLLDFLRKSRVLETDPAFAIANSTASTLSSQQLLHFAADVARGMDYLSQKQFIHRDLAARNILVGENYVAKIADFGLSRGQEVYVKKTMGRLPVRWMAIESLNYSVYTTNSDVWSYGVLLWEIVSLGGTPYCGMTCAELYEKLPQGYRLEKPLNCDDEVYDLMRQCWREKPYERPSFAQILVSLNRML
In words: Tek kinase inhibition, GST-fused kinase domain. As to conditions: Table 5; read-out: Tek, IC50 class. In kind it is biochemical. An excerpt:
The inhibition of IGF-1R and Ins-R can be determined as follows: The baculovirus donor vector pfbgx3IGFIRcd is used to generate a recombinant baculovirus that expresses the amino acid region 950-1337 of the mature peptide cytoplasmic domain of the human IGF-IR. To generate the cDNA fragment encoding the amino acid region 919-1343 of the intra-cytoplasmic kinase domain of the human insulin receptor, pC5hInsR is used. The fragments of the human IGF-IR and Ins-R are cloned, expressed and small-scale purified as a factor Xa-cleavable glutathione-S-transferase (GST)-fusion protein using the Bac-to-Bac™ system (GIBCO BRL) of recombinant baculovirus generation. Virus containing media is collected from the transfected cell culture and used for infection to increase its titer. Virus containing media obtained after two rounds of infection is used for large-scale protein expression. Cell extracts are prepared and loaded onto a glutathione-Sepharose (Pharmacia) column. After washing, the GST-tagged proteins are then eluted with a glutathione-containing buffer. Purified protein is stored at −70° C. in elution buffer. Tyrosine protein kinase assays with purified GST-IGF-1R and GST-ins-R are carried in a final volume of 30 μl containing 20 mM Tris-HCl, pH 7.6, 10 mM MgCl2, 0.01 mM Na3VO4, 1% DMSO, 1 mM DTT, 3 μg/ml poly(Glu,Tyr) 4:1 and 10 μM ATP (γ-[^33P]-ATP 0.1 μCi). The assay is performed in 96-well plates at ambient temperature for 20 min and terminated by addition of 25 μl 0.05 M EDTA pH 7.0. An aliquot of 40 μl is spotted with a multichannel dispenser on Whatman P81 membranes mounted in a Millipore Microtiter filter manifold connected to a low vacuum source. After elimination of liquid, the membrane is transferred to a sequence of 4 washing baths containing 0.5% H3PO4 and one with EtOH (shaking incubation for 10 min each), dried, mounted onto a Hewlett Packard TopCount manifold added 10 μl Microscint® and counted. Compounds of formula (I) show up to 90% inhibition of Ins-R at 10,000 nM, preferably between 60-90% inhibition. The inhibition of Tek can be determined as follows: The procedure of the expression, purification and assay these kinases has been described. Fabbro et al., Pharmacol. Ther. 82(2-3) 293-301 (1999). In brief, the glutathione S-transferase (GST) gene from the pAcG1 vector (Pharmingen) is excised with EcoRV and EcoRI and inserted into the cloning site of the Fast-Bac baculoviral vector (GIBCO) creating a 5530 bp vector with N-terminal cloning sites derived from the pAcG1 fusion vector (FBG0). The C-terminal cloning site may be any cloning site (from the Fast-Bac vector) downstream of the N-terminal cloning site used. N-terminally GST-fused (pAcG1, Pharmingen) KDR, Flt-1, Flk-1, Tek and PDGFR-β kinase domains are obtained from ProQinase, Freiburg, Germany. Tek is recloned into the FBG1 vector by EcoRI excision and ligation into EcoRI digested FBG1 (FBG1-Tek). The coding sequences for the whole cytoplasmic domain of c-Kit (aa 544-976) and c-Fms (aa 538-972) are amplified by PCR from human uterus and from human bone marrow cDNA libraries (Clontech), respectively. The amplified DNA fragments are fused to GST by cloning them into FBG1 as BamHI-EcoRI insertions, to yield FBG1-c-Kit and FBG1-c-Fms. Tek is recloned into the FBG0 transfer vector by EcoRI excision and ligation into EcoRI digested FBG0 (FBG-Tie2/Tek). FGFR-1 and c-met kinase domains are obtained by PCR from human A431 cells. N-terminal primers contain an overhanging EcoRI site, while C-terminal primers contain a XhoI site to aid cloning into the transfer vectors. After digestion of both the PCR fragments and FBG0 the cleavage products are gel-purified and ligated together to form the kinase constructs (FBG-Met, FBG-FGFR-1).
Viruses for each of the kinases are made according to the protocol supplied by GIBCO. […]

Setting [1] is: Table 4, read-out: Cdk1, activity (IC50 for kinase inhibition).
Setting [2] is: Table 5, read-out: CDK1/B, IC50 class.

Where two headings read alike, the source gives them in different places.

On to `Nc1c(-c2cccc(O)c2)cnc2c(-c3cccnc3)cnn12` [Example 46, 3-[7-Amino-3-pyridin-3-yl-pyrazolo[1,5-a]pyrimidin-6-yl]-phenol], for which the IC50 at Cdk1/cycB (setting [1]) was below 10 µM.
With `COc1cccc(-c2cnn3c(N)c(-c4cccc(O)c4)cnc23)c1` [Example 60, 3-[7-Amino-3-(3-methoxy-phenyl)-pyrazolo[1,5-a]pyrimidin-6-yl]-phenol], at Cdk1/cycB (setting [1]), the IC50 is below 10 µM.
`Cc1nc2c(-c3cccc(N4CCN(C)CC4)c3)cnn2c(N)c1-c1cccc(Cl)c1` [Example 72, 6-(3-Chloro-phenyl)-5-methyl-3-[3-(4-methyl-piperazin-1-yl)-phenyl]-pyrazolo[1,5-a]pyrimidin-7-ylamine]: the IC50 is above 10 µM at Cdk1/cycB (setting [2]), 1 to 10 µM on HER-1 and 1 to 10 µM on Tek.
Take `Cc1nc2c(-c3ccc(N4CCN(C)CC4)cc3)cnn2c(N)c1-c1cccc(Cl)c1` [Example 73, 6-(3-Chloro-phenyl)-5-methyl-3-[4-(4-methyl-piperazin-1-yl)-phenyl]-pyrazolo[1,5-a]pyrimidin-7-ylamine]: the IC50 on Cdk1/cycB (setting [2]) was above 10 µM; on HER-1, 1 to 10 µM; on Tek, 1 to 10 µM.
With `COc1cc(N2CCN(C)CC2)ccc1-c1cnn2c(N)c(-c3cccc(O)c3)cnc12` [Example 76, 3-{7-Amino-3-[2-methoxy-4-(4-methyl-piperazin-1-yl)-phenyl]-pyrazolo[1,5-a]pyrimidin-6-yl}-phenol], the IC50 on Cdk1/cycB (setting [2]) is above 10 µM; at HER-1, below 1 µM; on Tek it was below 1 µM.
In the case of `CN1CCN(c2ccc(-c3cnn4c(N)c(-c5ccccc5Cl)cnc34)cc2)CC1` [Example 77, 6-(2-Chloro-phenyl)-3-[4-(4-methyl-piperazin-1-yl)-phenyl]-pyrazolo[1,5-a]pyrimidin-7-ylamine], at Tek, the IC50 was below 1 µM.
`CN1CCN(c2cccc(-c3cnn4c(N)c(-c5ccccc5Cl)cnc34)c2)CC1` [Example 78, 6-(2-Chloro-phenyl)-3-[3-(4-methyl-piperazin-1-yl)-phenyl]-pyrazolo[1,5-a]pyrimidin-7-ylamine]: the IC50 on Tek is 1 to 10 µM.
With `Cc1nc2c(-c3ccc(N4CCN(C)CC4)cc3)cnn2c(N)c1-c1ccc(F)cc1` [Example 79, 6-(4-Fluoro-phenyl)-5-methyl-3-[4-(4-methyl-piperazin-1-yl)-phenyl]-pyrazolo[1,5-a]pyrimidin-7-ylamine], the values for the IC50 on Cdk1/cycB (setting [2]), at HER-1 and at Tek were above 10 µM, 1 to 10 µM and above 10 µM, respectively.
In the case of `Cc1nc2c(-c3cccc(N4CCN(C)CC4)c3)cnn2c(N)c1-c1ccc(F)cc1` [Example 80, 6-(4-Fluoro-phenyl)-5-methyl-3-[3-(4-methyl-piperazin-1-yl)-phenyl]-pyrazolo[1,5-a]pyrimidin-7-ylamine], the IC50 at Cdk1/cycB (setting [2]) was above 10 µM; at HER-1, above 10 µM; at Tek, 1 to 10 µM.
`Cc1nc2c(-c3cccc(N4CCN(C5CCN(C)CC5)CC4)c3)cnn2c(N)c1-c1cccc(Cl)c1` [Example 81, 6-(3-Chloro-phenyl)-5-methyl-3-{3-[4-(1-methyl-piperidin-4-yl)-piperazin-1-yl]-phenyl}-pyrazolo[1,5-a]pyrimidin-7-ylamine]: the results for the IC50 on Cdk1/cycB (setting [2]), at HER-1 and on Tek were above 10 µM, above 10 µM and below 1 µM, respectively.
Turning to `Cc1nc2c(-c3cccc(N4CCN(C)CC4)c3)cnn2c(N)c1-c1ccc(F)c(Cl)c1` [Example 82, 6-(3-Chloro-4-fluoro-phenyl)-5-methyl-3-[3-(4-methyl-piperazin-1-yl)-phenyl]pyrazolo[1,5-a]pyrimidin-7-ylamine], the IC50 on Cdk1/cycB (setting [2]), at HER-1 and at Tek was above 10 µM throughout.
With `Cc1nc2c(-c3ccc(N4CCN(C)CC4)cc3)cnn2c(N)c1-c1ccc(F)c(Cl)c1` [Example 83, 6-(3-Chloro-4-fluoro-phenyl)-5-methyl-3-[4-(4-methyl-piperazin-1-yl)-phenyl]-pyrazolo[1,5-a]pyrimidin-7-ylamine], the IC50 at Cdk1/cycB (setting [2]), at HER-1 and at Tek was above 10 µM throughout.
On to `Cc1nc2c(-c3cccc(N4CCN(C)CC4)c3)cnn2c(N)c1-c1cccc(Br)c1` [Example 84, 6-(3-Bromo-phenyl)-5-methyl-3-[3-(4-methyl-piperazin-1-yl)-phenyl]-pyrazolo[1,5-a]pyrimidin-7-ylamine], for which the IC50 at Cdk1/cycB (setting [2]), at HER-1 and at Tek was above 10 µM in each case.
With `CN1CCN(c2cccc(-c3cnn4c(N)c(Cc5cccc(Br)c5)cnc34)c2)CC1` [Example 85, 6-(3-Bromo-benzyl)-3-[3-(4-methyl-piperazin-1-yl)-phenyl]pyrazolo[1,5-a]pyrimidin-7-ylamine], the IC50 on Cdk1/cycB (setting [2]), on HER-1 and at Tek was above 10 µM each time.
With `CN1CCN(c2cccc(-c3cnn4c(N)c(-c5cccc(Br)c5)cnc34)c2)CC1` [Example 86, 6-(3-Bromo-phenyl)-3-[3-(4-methyl-piperazin-1-yl)-phenyl]-pyrazolo[1,5-a]pyrimidin-7-ylamine], the IC50 at Cdk1/cycB (setting [2]) is above 10 µM; at HER-1 it was above 10 µM; on Tek it was 1 to 10 µM.

Source of the values: patent publication US20090099167A1, “Organic compounds” (Novartis Institutes for Biomedical Research, priority 2004, published 2009).
